# What was measured:
# [1] = tested on: fetal rat dorsal root ganglion-derived established neuronal cell line ND15; test: Protective effect on cisplatin-induced cell damage (alamarBlue cell viability), simultaneous treatment; format: cell-based; conditions: ND15 cells, cisplatin 50 μM 4 hours, simultaneous treatment with compound 1 at 0.5, 5 or 50 μM
# Experimental: A fetal rat dorsal root ganglion-derived established neuronal cell line ND15 was cultured in 10% FBS-containing DMEM. On the next day, the cells were cultured in 10% FBS-containing DMEM containing EC23 (10 μM, Reinner) for 8 days, for differentiation into neurons.
# The medium was exchanged with DMEM/F12 medium containing cisplatin (final concentration of 50 μM) followed by 4 hours of culture, thereby inducing cell injury. Compound 1 was contained in the medium (final concentration of 0.5, 5 or 50 μM) for treatment, in a manner similar to that for cisplatin. Groups were composed of 6 groups: an untreated group, a 50 μM compound 1 treatment group (the group treated with 50 μM compound 1), a cisplatin treatment group, a cisplatin and 0.5 μM compound 1 treatment group (the group treated with cisplatin and 0.5 μM compound 1), a cisplatin and 5 μM compound 1 treatment group, and a cisplatin and 50 μM compound 1 treatment group.
# For measurement of cell viability, the medium was exchanged with DMEM/F12 medium containing alamarBlue (Invitrogen), followed by 2 hours of culture, and then the absorbance at wavelength of 570 nm and the absorbance at wavelength of 595 nm were measured. Cell viability was calculated using the ratio of the absorbance at wavelength of 570 nm to the absorbance at wavelength of 595 nm and the untreated group designated as 100%.
# [2] = tested on: myelin basic protein (MBP) in co-culture of rat dorsal root ganglion neurons and Schwann cells; test: Expression level of MBP in co-culture, Western blotting; format: cell-based; conditions: 30 μM, day 43 of culture, vs vehicle treatment group
# Experimental: In a manner similar to Example 3, co-culture of rat dorsal root ganglion neurons and Schwann cells was prepared, myelination was induced, and then treatment with compound 1 was performed. Groups were composed of 2 groups: a sterile distilled water treatment group (Vehicle treatment group); and a 30 μM compound 1 treatment group (compound 1 treatment group).
# For Western blotting, on day 43 from the initial day of cell culture, the co-culture was lysed in a RIPA cell lysis solution, and then the cell lysate was subjected to sodium dodecyl sulfate-polyacrylamide gel electrophoresis. Subsequently, the protein was transferred to a PVDF membrane, and then an MBP band was detected by antibody reaction. Image Lab software (BIO-RAD) was used for quantifying the thus detected band.
# [3] = tested on: rat oxaliplatin-induced peripheral neuropathy model; test: Cold allodynia (cold plate test) in rat oxaliplatin-induced peripheral neuropathy model; format: in vivo; conditions: 10 mg/kg oral twice a day, day 12 after induction, vs vehicle group
# Experimental: Oxaliplatin (4 mg/kg, Elplat I.V. infusion solution […]; Yakult) was administered to SD rats (7 weeks old, male; CHARLES RIVER LABORATORIES JAPAN, INC.) in a cycle of 1 week (intraperitoneally administered twice, two consecutive days per week) for 2 or 3 weeks, thereby preparing an oxaliplatin-induced peripheral neuropathy model. As a control (pseudo-induction), a 5% glucose solution (Otsuka Pharmaceutical Factory, Inc.) was administered. The initial day of administration was designated as day 0 after induction of pathological conditions.
# A solution containing compound 1 (3 or 10 mg/kg) or a solvent thereof (water for injection; Otsuka Pharmaceutical Factory, Inc.) was orally administered everyday (twice a day) (2nd administration was performed 8 hours after the 1st administration) to rats from day 0 after induction of pathological conditions for 18 days. […]
# The beneficial effects on cold allodynia were evaluated before induction of pathological conditions and on day 12 after induction of pathological conditions (before the 1st administration of compound 1). Beneficial effects on cool allodynia were evaluated by cold plate test. […] An animal was placed on a plate kept at a predetermined temperature (8° C.), and then the withdrawal latency required until pain-related behaviors (hind paw lifting, hind paw shaking, hind paw licking, standing, or jumping) were confirmed was measured. […]
# [4] = tested on: rat cisplatin-induced peripheral neuropathy model; test: Mechanical allodynia (von Frey test) in rat cisplatin-induced peripheral neuropathy model; format: in vivo; conditions: 10 mg/kg oral single dose, day 34, 2 hours after administration, vs vehicle group
# Experimental: Cisplatin (Wako Pure Chemical Industries, Ltd.) was intraperitoneally administered to SD rats (6 weeks old, male; CHARLES RIVER LABORATORIES JAPAN, INC.) intermittently twice a week (1 or 2 mg/kg) for 5 weeks, thereby preparing a cisplatin-induced peripheral neuropathy model. Cisplatin was dissolved in physiological saline to a concentration of 10 mg/mL and then administered. As a control (pseudo-induction), physiological saline was administered. The initial day of administration was designated as day 1 after induction of pathological conditions.
# On day 34 after induction of pathological conditions, a solution containing compound 1 (10 mg/kg) or a solvent thereof (water for injection) was orally administered to rats. Groups were composed of 3 groups: a pseudo-induction and solvent administration group (sham group); a pathological condition-induced and solvent administration group (vehicle group); and a pathological condition-induced and compound 1 (10 mg/kg) administration group (compound 1 (10 mg/kg) group).
# Beneficial effects on mechanical allodynia were evaluated in a manner similar to Example 5 and this evaluation was performed before and 2 hours after administration of compound 1 on day 34 after induction of pathological conditions.
# [5] = tested on: rat streptozotocin-induced diabetes model; test: Mechanical allodynia (von Frey test) in rat streptozotocin-induced diabetes model; format: in vivo; conditions: day 28, 3 hours after administration, vs vehicle group
# Experimental: Streptozotocin (50 mg/kg, Sigma-Aldrich) was administered intravenously to SD rats (6 weeks old, male; CHARLES RIVER LABORATORIES JAPAN, INC.) via the tail vein, thereby preparing a streptozotocin-induced diabetes model. Streptozotocin was dissolved in physiological saline (Otsuka Pharmaceutical Factory, Inc.) to prepare a 25 mg/mL solution and then administered. Further, a pseudo-induction animal was also prepared by administering physiological saline instead of the streptozotocin solution. The initial day of administration was designated as day 0 after induction of pathological conditions.
# […] Groups were composed of 4 groups: a pseudo-induction and solvent administration group (sham group); a pathological condition-induced and solvent administration group (vehicle group); a pathological condition-induced and compound 1 (10 mg/kg) administration group (compound 1 (10 mg/kg) group); and a pathological condition-induced and compound 1 (30 mg/kg) administration group (compound 1 (30 mg/kg) group).
# Beneficial effects on mechanical allodynia were evaluated in a manner similar to Example 5, and this evaluation was performed at 3 hours after administration of compound 1 on day 28 after induction of pathological conditions.
structure (smiles),measurement,setting,value
"CN(C)C1CCN(C(=O)C[C@H](O)c2nccn2C)CC1 [Compound 1, (S)-1-(4-(dimethylamino)piperidin-1-yl)-3-hydroxy-3-(1-methyl-1H-imidazol-2-yl)propan-1-one]",cell viability (decrease caused by cisplatin),[1],suppressed decrease
same,myelin sheath marker protein MBP expression level,[2],"increases in the myelin sheath marker protein, MBP"
same,withdrawal latency in cold plate test (cold allodynia),[3],significantly prolonged withdrawal latency
same,50% response threshold in von Frey test (mechanical allodynia),[4],significant increase in 50% response threshold
same,50% response threshold in von Frey test (mechanical allodynia),[5]; 10 mg/kg oral single dose,significant increases in 50% response threshold
same,50% response threshold in von Frey test (mechanical allodynia),[5]; 30 mg/kg oral single dose,significant increases in 50% response threshold

# Source: US20250367171A1, “THERAPEUTIC OR PROPHYLACTIC AGENT FOR PERIPHERAL NEUROPATHIES” (Toray Industries, Inc., priority 2017, published 2025)
